The values that follow are results of earlier work, collected in patent US20030022912A1, “Rapid-onset medicament for treatment of sexual dysfunction” (priority 2001, published 2003).

The conditions of the series: human subjects; sublingual administration; drug as free base except where a footnote notes a salt.

Each structure is given as a SMILES string.

Regarding `CN1CCc2cccc3c2[C@H]1Cc1ccc(O)c(O)c1-3` [apomorphine], the “sublingual Tmax” value was 1.02 h.

Regarding `CN(C)CCCN1c2ccccc2CCc2ccc(Cl)cc21` [clomipramine], the “sublingual Tmax” value is 1.5 h.

For `COc1c2occc2cc2ccc(=O)oc12` [methoxsalen], the “sublingual Tmax” value was 0.417 h.

As for `O=[N+]([O-])OCC(CO[N+](=O)[O-])O[N+](=O)[O-]` [nitroglycerin], the “sublingual Tmax” value is 0.05 h.

Take `C#CCN(C)[C@H](C)Cc1ccccc1` [selegiline]: the “sublingual Tmax” value was 0.167 h.

Turning to `CCCc1nn(C)c2c(=O)[nH]c(-c3cc(S(=O)(=O)N4CCN(C)CC4)ccc3OCC)nc12` [sildenafil], the “sublingual Tmax” value is 1 h.

Consider `CC(C)NCC(O)c1ccc(NS(C)(=O)=O)cc1` (centres unmarked) [sotalol], for which the “sublingual Tmax” value was 2.1 h.

For `CN1C(=O)C(O)N=C(c2ccccc2)c2cc(Cl)ccc21` (centres unmarked) [temazepam], the “sublingual Tmax” value is 1.08 h.
